From article PMC6437697 (Journal of Medicinal Chemistry, 2019) come the findings set out here.

Common to all, as to assay: KINOMEscan
Assay type in all cases: binding
Holding throughout (details): read-out: % control activity remaining

One test has as its target T1, ASK1 (Homo sapiens, UniProt Q99683).
T1 construct: purchased Eurofins DiscoverX KINOMEscan
T1 sequence (Q99683 1-1374): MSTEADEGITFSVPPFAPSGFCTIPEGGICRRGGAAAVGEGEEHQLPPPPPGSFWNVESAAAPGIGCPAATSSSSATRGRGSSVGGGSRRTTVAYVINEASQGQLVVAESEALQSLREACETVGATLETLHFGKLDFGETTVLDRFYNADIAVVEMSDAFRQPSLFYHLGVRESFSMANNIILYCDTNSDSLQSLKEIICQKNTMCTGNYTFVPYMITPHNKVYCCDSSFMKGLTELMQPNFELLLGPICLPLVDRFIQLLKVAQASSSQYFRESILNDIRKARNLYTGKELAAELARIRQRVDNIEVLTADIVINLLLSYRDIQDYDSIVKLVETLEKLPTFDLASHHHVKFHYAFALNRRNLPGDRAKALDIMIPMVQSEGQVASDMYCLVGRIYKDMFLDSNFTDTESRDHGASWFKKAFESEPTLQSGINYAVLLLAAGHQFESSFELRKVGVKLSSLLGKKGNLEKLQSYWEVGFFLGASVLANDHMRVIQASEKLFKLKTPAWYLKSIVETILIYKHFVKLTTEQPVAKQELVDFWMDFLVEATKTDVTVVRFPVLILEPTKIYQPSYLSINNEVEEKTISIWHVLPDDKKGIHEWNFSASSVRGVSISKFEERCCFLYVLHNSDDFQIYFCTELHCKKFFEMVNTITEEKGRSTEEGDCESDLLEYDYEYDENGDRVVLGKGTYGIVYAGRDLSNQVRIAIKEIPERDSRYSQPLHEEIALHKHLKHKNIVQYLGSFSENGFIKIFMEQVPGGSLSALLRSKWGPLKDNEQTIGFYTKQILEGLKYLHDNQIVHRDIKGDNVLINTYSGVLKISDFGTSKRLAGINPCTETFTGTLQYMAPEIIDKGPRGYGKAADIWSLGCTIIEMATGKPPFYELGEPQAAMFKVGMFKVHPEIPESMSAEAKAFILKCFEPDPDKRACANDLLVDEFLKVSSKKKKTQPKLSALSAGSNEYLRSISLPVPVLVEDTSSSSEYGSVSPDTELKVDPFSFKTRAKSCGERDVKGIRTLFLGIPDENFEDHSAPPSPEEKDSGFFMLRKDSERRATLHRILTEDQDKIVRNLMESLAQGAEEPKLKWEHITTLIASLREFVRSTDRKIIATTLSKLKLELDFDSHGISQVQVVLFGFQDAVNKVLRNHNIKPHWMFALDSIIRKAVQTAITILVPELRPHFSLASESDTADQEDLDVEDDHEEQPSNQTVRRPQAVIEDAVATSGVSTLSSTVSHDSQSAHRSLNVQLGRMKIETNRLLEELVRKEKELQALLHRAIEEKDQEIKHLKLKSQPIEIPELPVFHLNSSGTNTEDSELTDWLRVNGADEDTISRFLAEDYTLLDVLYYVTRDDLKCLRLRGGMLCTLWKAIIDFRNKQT

The target in another test is T2, DCAMKL2 (Homo sapiens, UniProt Q8N568).
T2 construct: purchased Eurofins DiscoverX KINOMEscan
T2 sequence (Q8N568 1-766): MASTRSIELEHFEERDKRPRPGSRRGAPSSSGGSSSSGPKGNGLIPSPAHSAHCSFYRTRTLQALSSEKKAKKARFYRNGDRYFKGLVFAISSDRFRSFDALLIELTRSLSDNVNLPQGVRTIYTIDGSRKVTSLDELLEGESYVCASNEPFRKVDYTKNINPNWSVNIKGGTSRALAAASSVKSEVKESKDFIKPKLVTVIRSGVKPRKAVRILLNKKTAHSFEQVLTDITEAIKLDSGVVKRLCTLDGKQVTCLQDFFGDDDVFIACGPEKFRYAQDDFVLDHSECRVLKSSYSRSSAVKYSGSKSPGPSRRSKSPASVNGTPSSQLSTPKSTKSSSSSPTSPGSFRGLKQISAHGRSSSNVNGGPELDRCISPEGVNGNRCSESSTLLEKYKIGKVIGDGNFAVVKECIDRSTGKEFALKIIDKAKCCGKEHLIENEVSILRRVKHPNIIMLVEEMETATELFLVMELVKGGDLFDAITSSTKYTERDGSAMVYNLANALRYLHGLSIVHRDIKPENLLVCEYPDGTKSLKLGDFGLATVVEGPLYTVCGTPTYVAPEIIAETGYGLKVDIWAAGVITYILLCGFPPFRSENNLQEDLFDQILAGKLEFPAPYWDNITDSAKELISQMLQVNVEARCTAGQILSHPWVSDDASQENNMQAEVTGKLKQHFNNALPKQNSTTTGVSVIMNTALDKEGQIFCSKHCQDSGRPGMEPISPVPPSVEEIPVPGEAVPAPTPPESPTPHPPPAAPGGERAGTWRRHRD

The next test deals with T3, TRKC (Homo sapiens, UniProt Q16288).
T3 construct: purchased Eurofins DiscoverX KINOMEscan
T3 sequence (Q16288 32-839): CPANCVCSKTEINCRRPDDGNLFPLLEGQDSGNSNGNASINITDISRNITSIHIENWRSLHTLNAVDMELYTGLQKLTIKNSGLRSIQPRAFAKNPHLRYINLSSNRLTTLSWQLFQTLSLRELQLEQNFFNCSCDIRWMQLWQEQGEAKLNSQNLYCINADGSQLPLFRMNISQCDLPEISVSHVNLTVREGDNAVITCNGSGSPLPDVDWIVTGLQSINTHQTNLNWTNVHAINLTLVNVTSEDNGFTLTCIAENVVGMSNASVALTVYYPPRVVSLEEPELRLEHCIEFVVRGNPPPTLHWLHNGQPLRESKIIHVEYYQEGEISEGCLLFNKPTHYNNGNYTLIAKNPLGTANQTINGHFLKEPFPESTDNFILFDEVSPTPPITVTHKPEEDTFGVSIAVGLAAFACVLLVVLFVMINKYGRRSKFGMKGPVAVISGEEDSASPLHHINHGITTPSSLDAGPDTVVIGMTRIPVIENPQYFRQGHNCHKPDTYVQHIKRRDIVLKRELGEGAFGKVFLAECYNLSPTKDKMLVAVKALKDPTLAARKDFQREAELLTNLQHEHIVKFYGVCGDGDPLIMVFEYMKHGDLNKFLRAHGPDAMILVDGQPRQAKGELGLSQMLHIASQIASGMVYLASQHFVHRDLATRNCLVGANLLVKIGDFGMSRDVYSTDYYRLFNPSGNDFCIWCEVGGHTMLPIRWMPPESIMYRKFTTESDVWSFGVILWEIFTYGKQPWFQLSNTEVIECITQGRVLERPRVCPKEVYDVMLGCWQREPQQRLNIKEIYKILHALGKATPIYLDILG

A further test has as its target T4, PIP5K2C (Homo sapiens, UniProt Q8TBX8).
T4 construct: purchased Eurofins DiscoverX KINOMEscan
T4 sequence (Q8TBX8 1-421): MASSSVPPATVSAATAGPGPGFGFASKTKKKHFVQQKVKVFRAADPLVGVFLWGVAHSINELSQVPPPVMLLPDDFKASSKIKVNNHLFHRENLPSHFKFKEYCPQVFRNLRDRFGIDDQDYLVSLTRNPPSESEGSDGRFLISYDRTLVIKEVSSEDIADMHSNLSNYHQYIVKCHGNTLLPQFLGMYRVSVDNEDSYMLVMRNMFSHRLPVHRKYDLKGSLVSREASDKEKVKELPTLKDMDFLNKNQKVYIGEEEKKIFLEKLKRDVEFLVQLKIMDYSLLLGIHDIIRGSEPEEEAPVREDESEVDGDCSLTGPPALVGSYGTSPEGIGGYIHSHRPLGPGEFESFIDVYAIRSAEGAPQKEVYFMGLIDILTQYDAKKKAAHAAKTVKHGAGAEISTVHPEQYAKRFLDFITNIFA

In the next test the target is T5, SgK110 (Homo sapiens, UniProt P0C264).
T5 construct: purchased Eurofins DiscoverX KINOMEscan
T5 sequence (P0C264 1-359): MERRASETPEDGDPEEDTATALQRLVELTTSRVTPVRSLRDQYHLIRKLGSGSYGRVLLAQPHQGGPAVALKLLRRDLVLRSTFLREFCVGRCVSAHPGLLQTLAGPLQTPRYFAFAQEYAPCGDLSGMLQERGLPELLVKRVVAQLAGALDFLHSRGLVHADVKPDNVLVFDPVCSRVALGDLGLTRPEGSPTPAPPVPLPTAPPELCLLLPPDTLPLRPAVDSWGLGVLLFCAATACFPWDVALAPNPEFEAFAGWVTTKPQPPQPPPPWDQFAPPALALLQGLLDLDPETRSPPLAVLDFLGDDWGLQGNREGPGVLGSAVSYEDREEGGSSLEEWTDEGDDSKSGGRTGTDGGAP

Regarding `Clc1cc(NCC2CC2)c2ncc(-c3ccc4[nH]ncc4c3)n2n1` [compound 2, 6-Chloro-N-(cyclopropylmethyl)-3-(1H-indazol-5-yl)imidazo[1,2-b]pyridazin-8-amine], the remaining binding at 1 µM came to 70% at ASK1; 95% on DCAMKL2; 87% at TRKC; 67% on PIP5K2C; 100% on SgK110.

As for `O=C(CN1CCOCC1)N[C@H]1CC[C@H](Nc2cc(Cl)nn3c(-c4ccc5[nH]ncc5c4)cnc23)CC1` [compound 26], the remaining binding at 1 µM on ASK1 stood at 100%; on DCAMKL2, 92%; on TRKC it was 100%; at PIP5K2C, 93%; on SgK110 it was 100%.

`CN1CCC(CNc2cc(Cl)nn3c(-c4cc5nc(Nc6ccccc6)[nH]c5cc4F)cnc23)CC1` [compound 31, 6-Chloro-3-(6-fluoro-2-(phenylamino)-1H-benzo[d]imidazol-5-yl)-N-((1-methylpiperidin-4-yl)methyl)imidazo[1,2-b]pyridazin-8-amine]: the remaining binding at 1 µM at ASK1 was determined as 100%; at DCAMKL2 it was 96%; on TRKC it was 100%; at PIP5K2C it was 100%; at SgK110 it was 100%.
